“Also recorded” adds a separate entry of the source.
What was measured:
hMR1 protein = target: T1, hMR1 protein (Homo sapiens, UniProt Q95460); assay: fluorescence polarization–based cell-free assay, competition with JYM20 for MR1 binding; settings: 50% inhibition of 10 nM JYM20 binding to 100 nM empty hMR1, 37°C; three independent experiments in triplicate
T1 construct: plasmids encoding for the extracellular domains of MR1, β2m, and the AF-7 TCRα and TCRβ chains; made in house; host or cells: Escherichia coli BL21(DE3)
T1 sequence (Q95460 23-302 limits assumed): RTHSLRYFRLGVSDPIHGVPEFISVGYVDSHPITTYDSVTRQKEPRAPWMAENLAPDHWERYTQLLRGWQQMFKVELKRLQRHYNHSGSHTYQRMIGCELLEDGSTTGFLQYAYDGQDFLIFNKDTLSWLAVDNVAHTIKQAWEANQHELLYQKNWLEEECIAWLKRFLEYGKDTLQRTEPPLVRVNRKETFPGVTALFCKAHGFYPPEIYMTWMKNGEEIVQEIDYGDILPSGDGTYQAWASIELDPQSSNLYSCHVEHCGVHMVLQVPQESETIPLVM
T1 sequence (P61769 21-119 partner): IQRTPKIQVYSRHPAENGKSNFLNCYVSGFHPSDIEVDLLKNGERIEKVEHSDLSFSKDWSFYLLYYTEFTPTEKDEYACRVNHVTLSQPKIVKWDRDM

Vγ9Vδ2 T cells = assay: Vγ9Vδ2 T cell activation by zoledronate in PBMCs; type: cell-based, human; settings: PBMCs titrated with ligand in the presence of zoledronate
MAIT cells from PBMCs = assay: primary MAIT cell activation in PBMCs (CD69, TNF); type: cell-based, human; settings: 18 h, in the presence of 5-OP-RU or 5-A-RU
[1] = test system: T2, MR1 on PBMC-derived B lymphocytes; assay: MR1 surface expression on primary B cells; type: cell-based; settings: primary human B cells, 16 h, highest doses, with or without 5-OP-RU
T2 construct: we also measured MR1 on the surface of cells expressing wild-type levels of MR1; endogenous in cells; host or cells: PBMC-derived B lymphocytes from healthy human donors

soluble WT MR1 = assay: fluorescence-based thermal shift (thermostability) assay of MR1–ligand complexes; type: binding, human; settings: MR1 refolded with the ligand; SYPRO Orange, 28 to 95°C; three independent experiments; listed as MR1-Lumichrome
[2] = test system: T3, human MR1–β2-microglobulin (β2m) complex; assay: refolding of recombinant MR1-β2m with ligand; type: binding; settings: ligand added to refolding buffer; gel filtration and SDS-PAGE
T3 construct: plasmids encoding for the extracellular domains of MR1, β2m, and the AF-7 TCRα and TCRβ chains; made in house

[3] = test system: MAIT and TRAV1-2^−ve cells from PBMCs; assay: TCR-independent or bead stimulation of PBMCs (PMA and ionomycin, αCD3/αCD28 beads); type: cell-based, human; settings: PBMCs preincubated, then αCD3- and αCD28-coated beads
[4] = test system: T4, folded MR1 in C1R.MR1 cells; assay: intracellular total folded MR1 by flow cytometry (8F2.F9); type: cell-based, human; settings: 16 h, 100 µM
T4 construct: expressed in transfected cells; host or cells: C1R B lymphoblastoid cells transduced with MR1*01

[5] = test system: T5, MR1^K43A on C1R.MR1^K43A cells; assay: cell surface MR1^K43A by flow cytometry; type: cell-based, human
T5 construct: expressed in transfected cells; host or cells: C1R cells overexpressing MR1^K43A
Excerpt: (§1) We then tested the effect of the RF catabolites on the expression of two mutant versions of MR1 termed MR1^R9H ([Howson et al., 2020]) and MR1^K43A ([Reantragoon et al., 2013]). First, we tested the MR1^R9H mutant ([Howson et al., 2020]), which represents a rare, natural human polymorph. […] We used C1R.MR1^R9H cells, which are produced by stable transduction of wild-type C1R cells, which express low levels of wild-type MR1, with a vector expressing the MR1^R9H mutant ([Howson et al., 2020]). […] When C1R. […] Next, we sought to understand how the previously characterized K43A mutation affects ligand binding.
The level of MR1 expressed on the cell surface was measured after the exposure to the investigated ligands as previously described ([Awad et al., 2020a]; [Wang et al., 2022a]). C1R Ag-presenting B lymphocytes overexpressing MR1*01 (C1R.MR1), MR1^K43A mutant (C1R.MR1^K43A), MR1^R9H mutant (C1R.MR1^R9H), or HLA-A*02:01 (C1R-A2), in addition to the monocytic THP-1-MR1 cells, were used in this study. 2 × 10^5 cells were incubated with RF catabolites for 3 or 16 h at 37°C and 5% CO2 in 200 μl folate-free RPMI 1640 medium from Gibco (Cat. No. 11875-093) fortified with 10% fetal bovine serum, sodium pyruvate (1 mmol/L), HEPES buffer (15 mmol/L), pH 7.2–7.5, 2% penicillin (100 U/ml), streptomycin ([…]), GlutaMAX (2 mmol/L), nonessential amino acids (0.1 mmol/L) (all from Thermo Fisher Scientific, Life Technologies), and 2-mercaptoethanol ([…], Sigma-Aldrich) (RF-10). After incubation, the cells were first stained with Zombie Aqua Fixable Viability Kit from BioLegend (Cat. No. 423102) and then incubated with biotinylated 8F2F9 αMR1 antibody for 30 min on ice. The unbound antibody was then washed off with 2% fetal bovine serum/PBS (called 2% FACS hereafter) buffer. The cells were finally incubated with PE-conjugated streptavidin (30 μg/ml; BioLegend) and then washed with 2% FACS buffer. The PE fluorescence intensity reflects the surface MR1 level. The data were acquired with LSRFortessa X-20 (BD Biosciences) and Diva software (BD Biosciences) and analyzed using FlowJo software (BD Biosciences).

SKW-3-MAV36 line = assay: SKW-3 reporter T cell activation (CD69), coculture with C1R.MR1; type: cell-based; settings: SKW-3-MAV36, in the presence of 5-OP-RU
Experimental: (§2) Given the intracellular MR1 retention induced by the RF catabolites, we anticipated that these ligands could influence the activity of MR1-reactive T cells. First, we utilized a system whereby reporter SKW-3 T cell lines were cocultured with C1R.MR1 APCs and activation was determined by CD69 expression. […] In contrast, SKW-3-MBV28 cells were inhibited by alloxazine but activated by lumichrome (Fig. S3, D–F). Two MR1-restricted TRAV1-2^−ve SKW-3 T cell lines were also tested.
(§3) C1R.MR1 cells (1 × 10^5) were initially stained with CTV (Thermo Fisher Scientific) for 15 min and then incubated with RF catabolites for 20 h. […] Cells were subsequently stained with PE-Cy7-conjugated anti-CD69 (1:100; BD Biosciences) and PE-labeled anti-MR1 (1:100, clone 26.5; BD Biosciences), before analysis on a LSRFortessa (BD Biosciences) flow cytometer. Activation of the SKW-3 cells was reflected by the cell surface CD69 expression.

[6] = test system: SKW-3 cells expressing MAIT TCR AF-7; assay: as above; type: cell-based
Experimental: as §2, §3

[7] = test system: SKW-3 cells expressing MAIT TCR MBV28; assay: as above; type: cell-based; settings: SKW-3-MBV28, in the presence of 5-OP-RU
Experimental: as §2, §3

SKW-3-DGB129 line = assay: as above; type: cell-based; settings: SKW-3-DGB129 cocultured with C1R.MR1
Experimental: as §2, §3

[8] = test system: CD3^+ MR1-5-OP-RU tetramer^+ MAIT cells; assay: MAIT cell proliferation in CTV-labeled PBMCs; type: cell-based, human; settings: 7-day culture, 5-OP-RU 10 µM, others 100 µM
[9] = test system: T6, surface MR1*01 on C1R.MR1 cells; assay: quantification of cell surface MR1 by flow cytometry, C1R.MR1 cells; type: cell-based, human
T6 construct: expressed in transfected cells; host or cells: C1R B lymphoblastoid cells transduced with MR1*01

MR1^R9H = test system: T7, MR1^R9H; assay: refolding of MR1^R9H with ligand in solution; type: binding, human
T7 construct: plasmids encoding for the extracellular domains of MR1, β2m, and the AF-7 TCRα and TCRβ chains; made in house
Excerpt: as §1
Escherichia coli BL21(DE3) cells were transformed with plasmids encoding for the extracellular domains of MR1, β2m, and the AF-7 TCRα and TCRβ chains ([Kjer-Nielsen et al., 2012]; [Patel et al., 2013]; [Wang et al., 2022a]). The proteins were then expressed, and the inclusion bodies were purified, cleaned, and used for refolding. For both MR1 and AF-7 TCR, inclusion bodies were refolded through rapid dilution overnight as previously mentioned ([Keller et al., 2017]). To refold MR1 with ligands, 58 mg MR1 inclusion bodies along with 30 mg of β2m inclusion bodies were placed in 500 ml of refold buffer consisting of 0.1 M Tris, pH 8.0, 5 M of urea, 2 mM EDTA, 2.5 mM oxidized glutathione, 20 mM reduced glutathione, and 0.4 M of L-arginine for 16 h at 4°C. […]

`Cc1cc2nc3[nH]c(=O)[nH]c(=O)c3nc2cc1C` [Lumichrome, 7,8-dimethylalloxazine] was tested, and the IC50 (hMR1 protein) was 12.5 µM, the “Vγ9Vδ2 T cell activation induced by zoledronate (% CD69^+ Vδ2^+)” value (Vγ9Vδ2 T cells) was “did not interfere” and the “MAIT cell inhibition (CD69 MFI, % CD69^+, TNF production)” value (MAIT cells from PBMCs) was “most potent competitor showing the strongest MAIT cell inhibition”. The MR1 surface expression [1] was “reduced MR1 surface expression”, the “Tm50 (half-maximum melting temperature), Mean ± SD” value (soluble WT MR1) was 49.89 ± 0.33 °C and the “folding of the MR1-β2m cocomplex in solution” value [2] was “facilitated the correct folding of the MR1-β2m cocomplex”. The “CD69 upregulation by MAIT or TRAV1-2^−ve cells” value [3] was “not reduced”, the “total level of folded MR1 (intracellular staining with 8F2.F9)” value [4] was “increased the total level of folded MR1” and the “MR1^K43A at the cell surface” value ([5]; 3 h) was “increased MR1^K43A at the cell surface”. For the same compound, the “MR1^K43A at the cell surface” value ([5]; 16 h) was “MR1 upregulation continues”, the “reactivity to 5-OP-RU (CD69)” value (SKW-3-MAV36 line) was “inhibited” and the “reactivity to 5-OP-RU (CD69)” value ([6]; SKW-3-AF-7, in the presence of 1 nM 5-OP-RU) was “enhanced activation”. For the same compound, the “reactivity to RL-7-Me (CD69)” value ([6]; SKW-3-AF-7, in the presence of 100 nM RL-7-Me) was “inhibited in a dose-dependent manner”, the “reactivity to 5-OP-RU (CD69)” value [7] was “activated” and the “reactivity of MR1 autoreactive, nucleobase-adduct reactive line (CD69)” value (SKW-3-DGB129 line) was “inhibited”. For the same compound, the MAIT cell proliferation [8] was “significantly reduced MAIT cell proliferation”, the “MR1 cell surface expression” value ([9]; C1R.MR1 cells, 3 h, 1–200 µM, 8F2F9 antibody) was “reduced MR1 cell surface” and the “rank as downregulator of MR1 cell surface expression” value ([9]; overall: lumichrome, then alloxazine, lumiflavin, FMF) was “most potent downregulator”. For the same compound, the “refolding with MR1^R9H” value (MR1^R9H) was “did not refold with MR1^R9H in solution; also recorded: unable to refold”.

Reference: paper PMC12650265 (The Journal of Experimental Medicine, 2025)
